The target of assay [1] is T1, human δ opioid receptor (DOP) over-expressed in CHO cells (Homo sapiens, UniProt P41143).
T1 construct: host or cells: CHO cells; membrane homogenates
Nature of the assay: [35S]GTPγS binding assay, functional antagonism (Ke) vs DPDPE. The class given is biochemical. As to conditions: for Kb: [35S]GTPγS, agonist DPDPE, read-out: apparent affinity (Ke) of antagonists, DOP. How it is done:
(§1) All compounds were initially screened for intrinsic and antagonist activity at 10 μM in the [^35S]GTPγS binding assay at the human κ, and the μ, and δ opioid receptors over-expressed in CHO cells. These cell lines were kindly provided by Temple University (κ) and SRI International (μ and δ). Compounds identified as antagonist were characterized for functional antagonism (Ke) and selectivity by measuring the ability of the test compounds to inhibit stimulated [^35S]GTPγS binding produced by one of the selective agonists DAMGO (μ), DPDPE (δ), or U69,593 (κ). Agonist concentration-response curves were run in the presence or absence of a single concentration of test compound.
(§2) The test compounds were assayed in duplicate in 1.4-mL polypropylene tubes in a 96-well format. CHO membrane homogenates (20-40 µg protein) were incubated with a positive control or the test compound, 0.1 nM [^35S]GTP-γ-S and 1 μM GDP in 50 mM HEPES buffer (pH 7.4) at room temperature for 1 h, after which bound radioligand was separated from free radioligand via rapid vacuum filtration over GF-B filters with a Brandel Scientific (Gaithersburg, Md.) 96-well harvester. Bound radioactivity is determined using a TopCount 12-detector instrument (Packard Instruments) using standard scintillation counting techniques. Bound radioactivity is normalized to samples containing vehicle (basal binding). […] The Ke values were calculated using the formula Ke=[L]/DR−1, where [L] is the concentration of test compound, and DR is the ratio of agonist EC50 value in the presence or absence of test compound.

For assay [2], the target named is T2, human κ opioid receptor (KOP) over-expressed in CHO cells (Homo sapiens, UniProt P41145).
T2 construct: host or cells: CHO cells; membrane homogenates
Put plainly: [35S]GTPγS binding assay, functional antagonism (Ke) vs U69,593. The assay is classed as biochemical. As to conditions: agonist U69,593, read-out: apparent affinity (Ke) of antagonists, KOP. How it is done:
as §1, §2

Assay [3] has as its target T2, human κ opioid receptor (KOP) over-expressed in CHO cells. Particulars: from Hartung et al., cited from earlier work; for Ke at the KOP: J. Nat. Prod. 2014, 77, 311.
Assay [4] deals with T3, human μ opioid receptor (MOP) over-expressed in CHO cells (Homo sapiens, UniProt P35372).
T3 construct: host or cells: CHO cells; membrane homogenates
Put plainly: [35S]GTPγS binding assay, functional antagonism (Ke) vs DAMGO. The class given is biochemical. Particulars: agonist DAMGO, read-out: apparent affinity (Ke) of antagonists, MOP. How it is done: as §1, §2
(In general: Binding of GTPγS marks nucleotide exchange on a G protein.)

Assay [5] has as its system human κ, μ and δ opioid receptors over-expressed in CHO cells. Nature of the assay: [35S]GTPγS binding assay, screen for intrinsic agonist activity. Particulars: screened at 10 μM. The class given is biochemical. How it is done:
as §1
The test compounds were assayed in duplicate in 1.4-mL polypropylene tubes in a 96-well format. […] Bound radioactivity is determined using a TopCount 12-detector instrument (Packard Instruments) using standard scintillation counting techniques. Bound radioactivity is normalized to samples containing vehicle (basal binding). […] The Ke values were calculated using the formula Ke=[L]/DR−1, where [L] is the concentration of test compound, and DR is the ratio of agonist EC50 value in the presence or absence of test compound. […]

SMILES strings stand for the structures.

T1 sequence (P41143 whole entry): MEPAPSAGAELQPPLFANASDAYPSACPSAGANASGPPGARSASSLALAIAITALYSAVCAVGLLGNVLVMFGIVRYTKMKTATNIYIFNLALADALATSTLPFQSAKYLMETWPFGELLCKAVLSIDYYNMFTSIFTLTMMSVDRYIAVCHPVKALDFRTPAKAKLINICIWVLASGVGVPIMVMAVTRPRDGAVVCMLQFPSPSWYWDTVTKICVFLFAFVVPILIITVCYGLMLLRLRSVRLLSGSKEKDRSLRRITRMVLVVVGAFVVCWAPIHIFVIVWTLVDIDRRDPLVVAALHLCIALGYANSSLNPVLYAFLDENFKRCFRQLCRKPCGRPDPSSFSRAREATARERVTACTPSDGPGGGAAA
T3 sequence (P35372 whole entry): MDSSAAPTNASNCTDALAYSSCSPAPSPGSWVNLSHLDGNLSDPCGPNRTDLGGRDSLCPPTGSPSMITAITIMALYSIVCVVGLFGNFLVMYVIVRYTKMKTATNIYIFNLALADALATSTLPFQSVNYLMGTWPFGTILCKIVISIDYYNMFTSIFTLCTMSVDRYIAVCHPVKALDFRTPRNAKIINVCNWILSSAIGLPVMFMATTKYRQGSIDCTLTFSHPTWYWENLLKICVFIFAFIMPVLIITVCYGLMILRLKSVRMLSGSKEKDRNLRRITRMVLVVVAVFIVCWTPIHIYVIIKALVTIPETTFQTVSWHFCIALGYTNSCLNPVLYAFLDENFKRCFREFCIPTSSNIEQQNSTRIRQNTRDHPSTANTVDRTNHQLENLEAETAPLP
T2 sequence (P41145 whole entry): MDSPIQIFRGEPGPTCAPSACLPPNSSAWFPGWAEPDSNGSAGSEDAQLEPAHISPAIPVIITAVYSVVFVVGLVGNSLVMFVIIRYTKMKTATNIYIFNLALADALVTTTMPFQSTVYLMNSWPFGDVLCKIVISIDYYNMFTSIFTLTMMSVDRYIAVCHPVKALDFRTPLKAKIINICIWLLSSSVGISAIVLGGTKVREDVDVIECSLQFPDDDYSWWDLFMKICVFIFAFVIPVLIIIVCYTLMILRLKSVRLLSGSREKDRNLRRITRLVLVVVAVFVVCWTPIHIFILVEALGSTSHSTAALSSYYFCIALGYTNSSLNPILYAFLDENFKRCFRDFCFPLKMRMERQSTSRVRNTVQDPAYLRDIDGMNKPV

For the compound `CC(C)=CCC/C(C)=C/Cc1c(O)cc(O)cc1/C=C/c1ccc(O)c(O)c1CC=C(C)C` [Compound 1, pawhuskin A], the results for the Kb in assay [1], in assay [2] and in assay [4] were 2900 nM, 200 nM and 570000 nM, respectively. Moreover, the “Ke at the KOP” value in assay [3] was 0.20 µM.
As for `COc1cc(/C=C/c2cc(O)c(O)c(CC=C(C)C)c2)c(C/C=C(\C)CCC=C(C)C)c(OC)c1` [Compound 3, 5-((E)-2-((E)-3,7-dimethylocta-2,6-dien-1-yl)-3,5-dimethoxystyryl)-3-(3-methylbut-2-en-1-yl)benzene-1,2-diol], the Kb in assay [1] is over 10000 nM; in assay [2], 150 nM; in assay [4], over 10000 nM. Further, in assay [3], the “Ke at the KOP” value is 0.15 µM. For the same compound, in assay [3] (J. Nat. Prod. 2014), the δ/κ selectivity is listed as over 67. The μ/κ selectivity in assay [3] (J. Nat. Prod. 2014) was over 67.
As to `COc1cc(/C=C/c2ccc(O)c(O)c2CC=C(C)C)c(C/C=C(\C)CCC=C(C)C)c(OC)c1` [Compound 4], the Kb in assay [1] was 25 nM; in assay [2], over 10000 nM; in assay [4], over 10000 nM. The KOP/DOP selectivity in assay [1] (ratio of Ke values) was over 400. The MOP/DOP selectivity in assay [1] (ratio of Ke values) was over 400. In assay [5], the intrinsic agonist activity result is “no agonist activity”.

Source of the values: patent US20170107173A1, “THERAPEUTIC COMPOUNDS AND METHODS” (UNIVERSITY OF IOWA RESEARCH FOUNDATION, priority 2015, published 2017).
